Among the data in patent publication US20230398125A1, “TREATING HEPATITIS” (Albireo AB, priority 2022, published 2023) are IC50 values, retold here.

What is called IC50 is the concentration that inhibits the measured activity by half.

The structures appear in SMILES notation.

The target of assay [1] is T1, Mouse NTCP (Mus musculus, UniProt O08705).
T1 construct: expressed in transfected cells; kept under geneticin selection
T1 sequence (O08705 1-362): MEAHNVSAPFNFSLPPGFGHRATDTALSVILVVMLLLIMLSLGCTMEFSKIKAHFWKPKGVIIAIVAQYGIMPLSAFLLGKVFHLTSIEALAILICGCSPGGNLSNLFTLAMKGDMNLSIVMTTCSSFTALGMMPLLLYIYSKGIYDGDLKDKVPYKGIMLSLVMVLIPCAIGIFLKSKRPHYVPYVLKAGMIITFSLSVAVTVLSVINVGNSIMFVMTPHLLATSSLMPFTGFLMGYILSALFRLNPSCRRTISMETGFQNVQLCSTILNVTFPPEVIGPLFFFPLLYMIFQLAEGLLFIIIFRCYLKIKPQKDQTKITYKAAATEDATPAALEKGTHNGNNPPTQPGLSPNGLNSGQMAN
Briefly: 3H-taurocholic acid uptake in mouse NTCP-overexpressing cells. In kind it is cell-based. The following applies: 3H-taurocholic acid transport. As for the experimental part:
20,000 cells (Human & Mouse NTCP-overexpressing cells) were seeded in 96-well plate in 100 μL MEM-alpha medium supplemented with 10% FBS containing geneticin (1 mg/mL) and incubated at 37° C. in 5% CO2 for 24 hrs. After incubation, media was decanted from the wells and cells were washed two times with 250 μL of basal MEM-alpha medium (FBS-free). After each wash, plates were tapped against a paper towel to ensure maximum removal of residual media. For Human NTCP (hNTCP), incubation mix was prepared by adding test inhibitor dilutions (3-fold serial dilution in DMSO, 10 concentrations) in MEM-alpha (without FBS) containing 0.3 μM ^3H-taurocholic acid and 7.5 μM cold taurocholic acid (maintaining 0.2% final DMSO concentration). […]
The plates were tapped against a paper towel after every wash to ensure maximum removal of blocking buffer. 100 μL of MicroScint-20 was added to the wells and kept overnight at room temperature before reading the plates in MicroBeta2 liquid Scintillation Counter from PerkinElmer under 3H Test for I/L-BAT protocol (set at 120 seconds reading time per well, with normal plate orientation).
Percentage inhibitions were calculated with respect to the assay controls. […]

In assay [2] the target is T2, M. fascicularis Ntcp (Macaca fascicularis, UniProt G7PAR4).
T2 construct: expressed in transfected cells; host or cells: GripTite 293 MSR (HEK293) cells, transient, Lipofectamine 2000
T2 sequence (G7PAR4 1-349): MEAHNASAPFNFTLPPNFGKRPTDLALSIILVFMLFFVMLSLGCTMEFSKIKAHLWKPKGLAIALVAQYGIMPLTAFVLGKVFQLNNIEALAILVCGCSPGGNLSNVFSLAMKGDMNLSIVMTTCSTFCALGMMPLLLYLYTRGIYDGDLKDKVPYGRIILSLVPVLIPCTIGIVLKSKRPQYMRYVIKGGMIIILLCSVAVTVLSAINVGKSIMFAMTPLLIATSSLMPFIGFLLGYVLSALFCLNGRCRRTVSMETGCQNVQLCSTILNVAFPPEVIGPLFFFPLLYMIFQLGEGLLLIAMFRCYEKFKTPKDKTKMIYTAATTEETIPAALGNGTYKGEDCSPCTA
In words: [3H]TC transport in HEK293 cells transiently transfected with M. fascicularis Ntcp. In kind it is cell-based. The following applies: read-out: IC50 bile acid transport via M. fascicularis Ntcp. As for the experimental part:
GripTite 293 MSR cells (here referred to as HEK293 cells, Invitrogen), a modified HEK293 cell line expressing human macrophage scavenger receptor for stronger adhesion, were maintained at 37° C., 5% CO2 and 95% humidity in DMEM/F-12 medium (Thermo Fisher Scientific) supplemented with 10% fetal calf serum (Sigma), 4 mM L-glutamine (PAA) and penicillin/streptomycin. HEK293 cells were transiently transfected with the M. fascicularis Ntcp cDNA construct for transport and peptide binding assays. Transfection was performed with Lipofectamine 2000 (Thermo Fisher Scientific). […]
Bile acid transport measurements were performed in the NTCP-HEK293 cells with tritium-labelled taurocholic acid (here referred to as [^3H]TC) (20 Ci/mmol, 0.09 mCi/mL, Perkin Elmer, Waltham, USA). […] Cell-associated radioactivity of [^3H]TC or [^3H]preS1 was quantified by liquid scintillation counting in a Packard Microplate Scintillation Counter TopCount NXT (Packard Instrument Company, Meriden, USA). Transport rates and [^3H]preS1 binding were determined in counts per minute (cpm). The mean of the 0% control was subtracted and the net [^3H]TC transport rates and net [^3H]preS1 binding rates, respectively, were expressed as % of control. IC50 values were calculated from quadruplicate determinations by GraphPad Prism 6 (GraphPad, San Diego, Calif., USA). […]

Turning to `CCCCC1CN(c2ccccc2)c2cc(SC)c(O/C=C(\F)C(=O)O)cc2S(=O)(=O)N1C` (centres unmarked) [Compound 1, (Z)-3-((3-butyl-2-methyl-7-(methylthio)-1,1-dioxido-5-phenyl-2,3,4,5-tetrahydro-1,2,5-benzothiadiazepin-8-yl)oxy)-2-fluoroacrylic acid], the figures for the IC50 in assay [1] and in assay [2] were 1.82 ± 0.25 nM and 200 nM, respectively.
